In US9539303B2, “Treatment of Ras-expressing tumors” (Celgene Corporation, priority 2006, dated 2017):
Several values for one entry are separate records, joined by “and”; a condition that tells them apart may be missing. Identical values can stand only once. Entries after “also recorded” stand apart in the source; their conditions may differ.

Legend:
c-Myc = experiment: Tissue biomarker immunoblotting of PANC-1 xenograft tumors: c-Myc; type: in vivo; settings: PANC-1 tumors at study completion; FK228 5 mg/kg Q4Dx3, gemcitabine 80 mg/kg Q3Dx4, or both; actin-normalized vs control
Method: (§1) Specimen Collection: […] Tumor xenograft tissue and serum specimens were obtained from in vivo studies performed by the Preclinical Research Laboratory at the completion of the experiments. […] Serum was obtained from whole blood and stored frozen at -70° C. Tissue Biomarkers: Tumor levels of acetylated histone-4, histone-4, […] were quantified by immunoblotting as described. Briefly, frozen tissue was pulverized under liquid nitrogen and homogenized in hypotonic lysis buffer. Small aliquots of the extracts were used for analysis of protein concentration by micro-BCA assay with bovine serum albumin as a protein standard. An equal amount of extracts containing about 20-50 μg protein was electrophoresed in SDS polyacrylamide gels. Proteins were transferred to ImmunoBlot PVDF membrane and were probed with appropriate primary and secondary antibodies. The chemiluminescence signal was captured by autoradiography, quantified by densitometry and expressed as a ratio of actin in each sample lane. For each biomarker, means and standard errors were calculated in each treatment group. […] Following quantitative analysis of biomarker levels in each sample, the results were normalized for b-actin and expressed as percentages of untreated controls. […]

acetylated histone 4 = experiment: Tissue biomarker immunoblotting of PANC-1 xenograft tumors: acetylated histone 4; type: in vivo; settings: PANC-1 tumors at study completion; FK228 5 mg/kg Q4Dx3, gemcitabine 80 mg/kg Q3Dx4, or both
Method: as §1

p21^waf = experiment: Tissue biomarker immunoblotting of PANC-1 xenograft tumors: p21waf; type: in vivo; settings: PANC-1 tumors at study completion; FK228 5 mg/kg Q4Dx3, gemcitabine 80 mg/kg Q3Dx4, or both
Method: as §1

[1] = Animal weight and drug toxicity, BxPC-3 study
From the text: (§2) Model Information—Female nude mice (nu/nu) between 5 and 6 weeks of age weighing approximately 20 grams were obtained from Harlan, Inc. (Madison, Wis.). PANC-1, obtained from the ATCC, is a pancreas tumor cell line originating from a person^(1-2). BxPC-3, obtained from the American Type Culture Collection (ATCC), is a pancreas tumor cell line originating from a person^(3-4). PANC-1 Study: Animals were implanted subcutaneously (SC) by trocar with fragments of PANC-1 harvested from SC growing tumors in nude mice hosts. When tumors grew to approximately 135 cubic millimeters (mm^3) in size (17 days following implantation, animals were pair-matched by tumor size into treatment and control groups; each treatment group contained nine mice. BxPC-3 Study: Animals were implanted subcutaneously (SC) by trocar with fragments of BxPC-3 harvested from SC growing tumors in nude mice hosts. When tumors grew to approximately 85 cubic millimeters (mm^3) in size (19 days following implantation), animals were pair-matched by tumor size into treatment and control groups; each treatment group contained nine mice. Animals in both studies were ear-tagged and followed individually throughout the experiment.
(§3) Study Design and Dosing—Initial doses were administered on Day 1 following pair-matching; both experiments were carried out as tumor growth inhibition (TGI) studies. Animals were dosed intravenously (IV) via tail vein with FK228 once every four days for three treatments (Q4Dx3) or by intraperitoneal (IP) injection with gemcitabine once every three days for four treatments (Q3Dx4), either alone or in combination, at the doses listed below (Table 1). To serve as a negative control, FK228 vehicle (2% ethanol, 8% propylene glycol, 90% 0.9% saline) was injected on a Q4Dx3 schedule.
(§4) Animal Weights—Individual and group mean weights±SD and percent weight change through Day 25 (PANC-1) or Day 29 (BxPC-3) were recorded twice weekly until study completion beginning Day 1. Final group mean weights±SD and group nadir values are reported; weight data from individual animals experiencing technical or drug-related deaths was censored from final group calculations.
(§5) Moribundity/Mortality—Animals were observed twice weekly for general moribundity and daily for mortality. Animal deaths were assessed as drug-related or technical based on factors including gross observation and weight loss; reported animal death information includes type, number, and day of death for each group.

acetylated histone 3 = experiment: Tissue biomarker immunoblotting of PANC-1 xenograft tumors: acetylated histone 3; type: in vivo; settings: PANC-1 tumors at study completion; FK228 5 mg/kg Q4Dx3, gemcitabine 80 mg/kg Q3Dx4, or both
Method: as §1

[2] = Animal weight and drug toxicity, PANC-1 study
From the text: as §2, §3, §4, §5

[3] = system: PANC-1 human pancreatic tumor xenograft; experiment: PANC-1 human pancreatic tumor xenograft tumor growth inhibition study (Example 3); type: in vivo, female nude mice (nu/nu); settings: PANC-1 study
From the text: (§6) (Madison, Wis.). […] Tumor measurements were converted to cubic millimeter tumor volume using the formula^(5): […] TGI values for each treatment group are reported at study completion; these calculations are based on the final study day. […] Individual mice lacking palpable tumors were classified as undergoing complete regression (CR). Animals experiencing partial or complete tumor regressions were censored from TGI calculations. However, data from these animals was included in statistical analysis calculations. In addition, weight data from these animals was included in daily and final group calculations. Tumor Necrosis-Degree of tumor necrosis was rated at each tumor measurement using the following arbitrary index: […]

[4] = system: BxPC-3 human pancreatic tumor xenograft; experiment: BxPC-3 human pancreatic tumor xenograft tumor growth inhibition study (Example 3); type: in vivo, female nude mice (nu/nu); settings: BxPC-3 study; for % TGI: Day 29
From the text: as §6

[5] = system: Panc-1 human pancreas tumors (oncogenic K-ras); experiment: Panc-1 mouse xenograft model, tumor growth (Example 1); type: in vivo, female nude mice; settings: Panc-1 xenograft; N=9 mice per group
Method: In this study, female nude mice were implanted subcutaneously (SC) by trocar with Panc-1 tumor fragments harvested from SC growing tumors in nude mice hosts. […] The day of treatment initiation was specified as Day 1. Vehicle control and FK228 were administered intravenously on a […] schedule (Days 1, 5, and 9). Gemcitabine was administered by an intraperitoneal injection on a […] schedule (Days 1, 4, 7, 10). Tumors were measured by Vernier calipers twice weekly.

[6] = Day 29, Gemcitabine 40 mg/kg IP Q3Dx4
[7] = Day 29, Gemcitabine 80 mg/kg IP Q3Dx4
[8] = Day 25, Gemcitabine 40 mg/kg IP Q3Dx4
[9] = Day 25, Gemcitabine 80 mg/kg IP Q3Dx4
[10] = at the evaluated doses and schedules

## Nc1ccn([C@@H]2O[C@H](CO)[C@@H](O)C2(F)F)c(=O)n1 [Gemcitabine, gemcitabine]
c-Myc
  extent of inhibition of c-Myc expression: 50%
Acetylated histone 4
  levels of acetylated histone 4 vs control: on the control level
p21^waf
  p21^waf expression: downregulated; also recorded: down-regulated
[1]; [6]
  Final weight data % change: +9%
  Final weight data mean ± SD: 25±3 G
[1]; [7]
  Final weight data % change: +1%
  Final weight data mean ± SD: 22±4 G
[1]; Gemcitabine 40 mg/kg IP Q3Dx4
  Drug deaths total: 0/9 and 0
  Weight nadir % change: No weight loss
[1]; Gemcitabine 80 mg/kg IP Q3Dx4
  Drug deaths total: 0/9 and 0
  Weight nadir % change: −9%
  Weight nadir day: 11
Acetylated histone 3
  acetylation of histone 3: significantly inhibited
[2]; [8]
  Final weight data % change: +7%
  Final weight data mean ± SD: 24±1 G
[2]; [9]
  Final weight data % change: +12%
  Final weight data mean ± SD: 26±3 G
[2]; Gemcitabine 40 mg/kg IP Q3Dx4
  Drug deaths total: 0/9 and 0
  Weight nadir % change: −2%
  Weight nadir day: 11
[2]; Gemcitabine 80 mg/kg IP Q3Dx4
  Drug deaths total: 0/9 and 0
  Weight nadir % change: −3%
  Weight nadir day: 11
[3]; Gemcitabine 40 mg/kg IP Q3Dx4
  #PR/CR: 1/9 and 1/0
  Activity according to NCI standards: inactive
  Tumor necrosis: 1/9 animals reported mild tumor necrosis and 4/9 reported moderate necrosis
[3]; Gemcitabine 80 mg/kg IP Q3Dx4
  #PR/CR: 0/9 and 0/0
  % TR: 0%
  Activity according to NCI standards: inactive
  Tumor necrosis: 1/9 animals reported slight tumor necrosis, 2/9 reported mild tumor necrosis, and 1/9 reported moderate necrosis
[3]; [10]
  calculated TGI values: less than 58%
[4]; Gemcitabine 40 mg/kg IP Q3Dx4
  % TGI: 20%
  #PR/CR: 0/9 and 0/0
  Activity according to NCI standards: inactive
  Tumor necrosis: 1/9 animals reported severe tumor necrosis
[4]; Gemcitabine 80 mg/kg IP Q3Dx4
  % TGI: 9%
  #PR/CR: 0/9 and 0/0
  Activity according to NCI standards: inactive
  Tumor necrosis: 1/9 animals reported mild tumor necrosis
[4]; [10]
  calculated TGI values: less than 58%
[5]
  tumor regression: no regression
